PubChem BioAssay AID2060490 (Molecular Pharmacology Branch, DTP, NCI, 2025)

Test system: 885512-296-R-J2-PDC complex spheroid viability
Test: Anticancer human tumor 885512-296-R-J2-PDC patient-derived breast carcinoma cell line growth inhibition [GQUAD]
Settings: for IC50: curve of first compound; for viability, T/C: stronger effect = lower value
Text: DNA G-quadruplex Stabilizer Agents in Combinations in Complex Spheroids
A high-throughput screen of multi-cell type tumor spheroids was designed to identify active combinations of DNA G-quadruplex stabilizer agents and targeted small molecules. Complex spheroids include a stromal component modeled by human endothelial cells (HUVEC) and fibroblasts modeled by human mesenchymal stem cells (MSCs). The concentration ranges selected for each drug and investigational agent were based upon clinically achievable concentrations if the clinical Cmax of the agent was known.
Compounds. The drugs and investigational agents: pidnarulex (CX-5461; NSC782164), APTO-253 (NSC789042), BRACO-19 (NSC847499), peposertib (NSC802822), ceralasertib (NSC780249), elimusertib (NSC800525), camonsertib (NSC841442), AZD-1390 (NSC803789), olaparib (NSC753686), talazoparib (NSC767125), ART-558 (NSC835418), sotorasib (NSC818433), MRTX-1133 (NSC836407), SN-38 (NSC673596), topotecan (NSC609699), etoposide (NSC141540), doxorubicin (NSC123127), gemcitabine (NSC613327), 5-fluorouracil (NSC19893), paclitaxel (NSC125973), vemurafenib (NSC761431), panobinostat (NSC761190), R-306465 (JNJ-16241199; NSC773264), adavosertib (NSC754352), TP-3654 (NSC805149), carboplatin (NSC241240), KSQ-4279 (NSC840948), and staurosporine (NSC755774) were obtained from the National Cancer Institute (NCI) Developmental Therapeutics Program Chemical Repository (34). The FDA-approved anticancer drug set is available from the NCI Developmental Therapeutics Program. […] The stock solutions were prepared in dimethyl sulfoxide (DMSO, Sigma-Aldrich, St. Louis, MO, cat. D2650) at 800-fold the tested concentration and stored at -70 degrees C prior to their use. All drugs and investigational agents were tested over a range starting from a high concentration at or near the clinical Cmax and decreasing in half-log increments. If the clinical Cmax for an agent had not been determined, the highest concentration tested was 10 microM.
2.3 Cell Culture. All cells were maintained in an incubator at 37 degrees C and 5% CO2 with 95% humidity. The PDC lines were cultured according to standard operating procedures established by the NCI PDMR. All PDCs were thawed and cultured in Matrigel-coated flasks prepared with a working solution of 1X Ham's F-12 nutrient mix, without supplementation (Invitrogen, cat. 11765054), 100 U/mL penicillin-streptomycin (Invitrogen, cat. 15140122), and 2.5% Matrigel (Corning Inc., cat. 354248) for the first three passages. The 857933-349-R-J2-PDC line was cultured in 6C/Colon 1B media, which includes advanced DMEM/F-12 (Thermo Fisher Scientific, cat. 12634028), 10 mM HEPES (Thermo Fisher Scientific, cat. 15630080), 1X GlutaMAX supplement (Thermo Fisher Scientific, cat. 35050061), 0.1 mg/mL primocin (InvivoGen, cat. ant-pm-2), 10% defined fetal bovine serum, heat inactivated (HyClone Laboratories Inc., cat. SH30070.03HI), 50% L-WRN conditioned media (ATCC, cat. CRL-3276), 1.25 mM N-Acetyl-L-cysteine (Sigma-Aldrich, cat. A9165), 10 mM nicotinamide (Sigma-Aldrich, cat. N0636), 1X B-27 supplement (Thermo Fisher Scientific, cat. 17504044), 1X N-2 supplement (Thermo Fisher Scientific, cat. 17502048), 10 microM Y-27632 dihydrochloride (Tocris Bioscience, cat. 1254), and 50 ng/mL human EGF recombinant protein (Thermo Fisher Scientific, cat. PHG0311). The 485176-168-R4-J1-PDC line was cultured in Panc media, which includes all 6C/Colon 1B media components plus 100 ng/mL human FGF-10 (Thermo Fisher Scientific, cat. 100-26), 500 nM SB-431542 (Selleckchem, cat. S1067), and gastrin (Tocris, cat. 3006).
[…]

[1] = second compound 0.0316 µM, first compound 0.0316 µM
[2] = second compound 0.0316 µM, first compound 0.316 µM
[3] = second compound 0.1 µM, first compound 0.0316 µM
[4] = second compound 0.1 µM, first compound 0.316 µM
[5] = second compound 0.316 µM, first compound 0.0316 µM
[6] = second compound 0.316 µM, first compound 0.316 µM
[7] = second compound 1 µM, first compound 0.0316 µM
[8] = second compound 1 µM, first compound 0.316 µM
[9] = second compound 3.16 µM, first compound 0.0316 µM
[10] = second compound 3.16 µM, first compound 0.316 µM
[11] = second compound 10 µM, first compound 0.0316 µM
[12] = second compound 10 µM, first compound 0.316 µM
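Note: spheroids exposed to the compounds for one week.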
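Throughout, for viability, T/C: percent of tumor spheroid viability relative to DMSO vehicle control wells.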

In the case of `Cc1[nH]c2ccccc2c1CCNCc1ccc(/C=C/C(=O)NO)cc1` + Cc1[nH]c2ccc(F)cc2c1-c1nc2c3cccnc3c3ncccc3c2[nH]1, the IC50 (second compound 0.0316 µM) is reported as greater than 316 nM, the IC50 (second compound 0.1 µM) is reported as greater than 316 nM and the IC50 (second compound 0.316 µM) is reported as greater than 316 nM. For the same molecule, the IC50 (second compound 1 µM) was greater than 316 nM, the IC50 (second compound 3.16 µM) was less than 0.999 nM and the IC50 (second compound 10 µM) was less than 0.999 nM. For the same molecule, the viability, T/C (second compound 0.0316 µM, first compound 0.000999 µM) was 99.3%, the viability, T/C (second compound 0.0316 µM, first compound 0.00316 µM) was 114% and the viability, T/C (second compound 0.0316 µM, first compound 0.00999 µM) was 97.1%. For the same molecule, the viability, T/C [1] was 94.9%, the viability, T/C (second compound 0.0316 µM, first compound 0.0999 µM) was 100% and the viability, T/C [2] was 78.2%. For the same molecule, the viability, T/C (second compound 0.1 µM, first compound 0.000999 µM) was 99.7%, the viability, T/C (second compound 0.1 µM, first compound 0.00316 µM) was 97.1% and the viability, T/C (second compound 0.1 µM, first compound 0.00999 µM) was 94.7%. For the same molecule, the viability, T/C [3] was 92.1%, the viability, T/C (second compound 0.1 µM, first compound 0.0999 µM) was 103% and the viability, T/C [4] was 82.4%. It also gave a viability, T/C (second compound 0.316 µM, first compound 0.000999 µM) of 92.5%, a viability, T/C (second compound 0.316 µM, first compound 0.00316 µM) of 88.4% and a viability, T/C (second compound 0.316 µM, first compound 0.00999 µM) of 90.2%. For the same molecule, the viability, T/C [5] was 87.3%, the viability, T/C (second compound 0.316 µM, first compound 0.0999 µM) was 85.7% and the viability, T/C [6] was 69.5%. The viability, T/C (second compound 1 µM, first compound 0.000999 µM) was 75.9%, the viability, T/C (second compound 1 µM, first compound 0.00316 µM) was 53.9% and the viability, T/C (second compound 1 µM, first compound 0.00999 µM) was 62.3%. The viability, T/C [7] was 65.9%, the viability, T/C (second compound 1 µM, first compound 0.0999 µM) was 53.7% and the viability, T/C [8] was 56.4%. The viability, T/C (second compound 3.16 µM, first compound 0.000999 µM) was 5.78%, the viability, T/C (second compound 3.16 µM, first compound 0.00316 µM) was 9.7% and the viability, T/C (second compound 3.16 µM, first compound 0.00999 µM) was 7.26%. It also gave a viability, T/C [9] of 6.61%, a viability, T/C (second compound 3.16 µM, first compound 0.0999 µM) of 5.06% and a viability, T/C [10] of 4.88%. For the same molecule, the viability, T/C (second compound 10 µM, first compound 0.000999 µM) was 1.15%, the viability, T/C (second compound 10 µM, first compound 0.00316 µM) was 1.37% and the viability, T/C (second compound 10 µM, first compound 0.00999 µM) was 1.33%. The viability, T/C [11] was 2.33%, the viability, T/C (second compound 10 µM, first compound 0.0999 µM) was 1.05% and the viability, T/C [12] was 1.69%.

With `COc1ccc([C@@H](O)c2cc(-c3ncnc4cc(N5CCOCC5)ccc34)c(F)cc2Cl)nn1` + Cc1cnc(CNC(=O)c2c(=O)c3ccc(N4CCCN(C)CC4)nc3n3c2sc2ccccc23)cn1 the IC50 (second compound 0.0316 µM) was 274 nM, the IC50 (second compound 0.1 µM) was 125 nM and the IC50 (second compound 0.316 µM) was less than 31.6 nM. The IC50 (second compound 1 µM) was less than 31.6 nM, the IC50 (second compound 3.16 µM) was less than 31.6 nM and the IC50 (second compound 10 µM) was less than 31.6 nM. The viability, T/C [1] was 93.6%, the viability, T/C (second compound 0.0316 µM, first compound 0.1 µM) was 73.1% and the viability, T/C [2] was 50%. The viability, T/C (second compound 0.0316 µM, first compound 1 µM) was 25.6%, the viability, T/C (second compound 0.0316 µM, first compound 3.16 µM) was 32% and the viability, T/C (second compound 0.0316 µM, first compound 10 µM) was 29.4%. It also gave a viability, T/C [3] of 67.1%, a viability, T/C (second compound 0.1 µM, first compound 0.1 µM) of 54.7% and a viability, T/C [4] of 28.2%. For the same molecule, the viability, T/C (second compound 0.1 µM, first compound 1 µM) was 30%, the viability, T/C (second compound 0.1 µM, first compound 3.16 µM) was 33.1% and the viability, T/C (second compound 0.1 µM, first compound 10 µM) was 29.2%. It also gave a viability, T/C [5] of 26.1%, a viability, T/C (second compound 0.316 µM, first compound 0.1 µM) of 21.2% and a viability, T/C [6] of 24.2%. The viability, T/C (second compound 0.316 µM, first compound 1 µM) was 24.6%, the viability, T/C (second compound 0.316 µM, first compound 3.16 µM) was 24.8% and the viability, T/C (second compound 0.316 µM, first compound 10 µM) was 23.8%. For the same molecule, the viability, T/C [7] was 21.8%, the viability, T/C (second compound 1 µM, first compound 0.1 µM) was 26.6% and the viability, T/C [8] was 21.9%. The viability, T/C (second compound 1 µM, first compound 1 µM) was 24.3%, the viability, T/C (second compound 1 µM, first compound 3.16 µM) was 29.9% and the viability, T/C (second compound 1 µM, first compound 10 µM) was 18.9%. For the same molecule, the viability, T/C [9] was 24.8%, the viability, T/C (second compound 3.16 µM, first compound 0.1 µM) was 25.4% and the viability, T/C [10] was 25.1%. The viability, T/C (second compound 3.16 µM, first compound 1 µM) was 22.7%, the viability, T/C (second compound 3.16 µM, first compound 3.16 µM) was 23.2% and the viability, T/C (second compound 3.16 µM, first compound 10 µM) was 17.2%. It also gave a viability, T/C [11] of 0.11%, a viability, T/C (second compound 10 µM, first compound 0.1 µM) of 0.2% and a viability, T/C [12] of 0.17%. The viability, T/C (second compound 10 µM, first compound 1 µM) was 0.15%, the viability, T/C (second compound 10 µM, first compound 3.16 µM) was 0.18% and the viability, T/C (second compound 10 µM, first compound 10 µM) was 0.19%.
